# Tested on: LXRα and/or LXRβ
# Test: Co-transfection assay (LXRE luciferase reporter, CV-1 cells)
# Format: cell-based, human
# Settings: for IC50 or EC50 (potency, activation or inhibition): tested as described in Example 33, IC50 or EC50 for LXRα and/or LXRβ, isoform not specified, read-out: activity (IC50 or EC50 for LXR); for EC50: read-out: activity (IC50 or EC50 for LXR), tested as described in Example 33, isoform not specified
# Excerpt: To measure the ability of compounds to activate or inhibit the transcriptional activity of LXR in a cell based assay, the co-transfection assay was used. It has been shown that LXR functions as a heterodimer with RXR. For the co-transfection assay, expression plasmids for LXR and RXR are introduced via transient transfection into mammalian cells along with a luciferase reporter plasmid that contains one copy of a DNA sequence that is bound by LXR-RXR heterodimers (LXRE; Willy, P. et. al. 1995). Treatment of transfected cells with an LXR agonist increases the transcriptional activity of LXR, which is measured by an increase in luciferase activity.
# CV-1 African Green Monkey Kidney Cells Co-transfection expression plasmids, comprising full-length LXRα (pCMX-h LXRα, LXRβ (pCMX-hLXRβ), or RXRα (pCMX-RXR), reporter plasmid (LXREx1-Tk-Luciferase), and control (pCMX-Galactosidase expression vector) (Willey et al. Genes & Development 9 1033-1045 (1995)). Transfection reagent such as FuGENE6 (Roche). 1× Cell lysis buffer (1% Triton X 100 (J T Baker X200-07), 10% Glycerol (J T Baker M778-07), 5 mM Ditriotreitol (Quantum Bioprobe DTT03; add fresh before lysing), 1 mM EGTA (Ethylene Glycol-bis(B-Amino ethyl ether)-N,N,N′,N′-Tetracetic Acid) (Sigma E-4378), 25 mM Tricine (ICN 807420) pH 7.8) 1× Luciferase assay buffer (pH at 7.8) (0.73 mM ATP, 22.3 mM Tricine, 0.11 mM EDTA, 33.3 mM DTT) 1× Luciferrin/CoA (11 mM Luciferin, 3.05 mM Coenzyme A, 10 mM HEPES)
# CV-1 cells were prepared 24 hours prior to the experiment by plating them into T-175 flasks or 500 cm^2 dishes in order to achieve 70-80% confluency on the day of the transfection. The number of cells to be transfected was determined by the number of plates to be screened. Each 384 well plate requires 1.92×10^6 cells or 5000 cells per well. DNA Transfection Reagent was prepared by mixing the required plasmid DNAs with a cationic lipid transfection reagent FuGENE6 (Roche) by following the instructions provided with the reagents. Optimal DNA amounts were determined empirically per cell line and size of vessel to be transfected. 10-12 mL of media was added to the DNA Transfection Reagent and this mixture was added to the cells after aspirating media from the T175 cm^2 flask. Cells were then incubated at least 5 hours at 37° C. to prepare screening cells.
# Luciferase assay reagent was prepared by combining before use (per 10 mL): 10 mL 1× Luciferase assay buffer; 0.54 mL of 1× Luciferrin/CoA; 0.54 mL of 0.2 M Magnesium sulfate
# Assay plates were prepared by dispensing 5 μL, of compound per well of a 384 well plate to achieve final compound concentration of 10 μM and no more than 1% DMSO. Media was removed from the screening cells, the cells trypsinized, harvested cells by centrifugation, counted, and plated at a density of approximately 5000 cells per well in the 384 well assay plate prepared above in a volume of about 45 μL. Assay plates containing both compounds and screening cells (50 μL in total volume) were incubated for 20 hours at 37° C.
# After incubation with compounds, media was removed from the cells and lysis buffer (30 μL/well) added. After 30 minutes at ambient temperature, luciferase assay buffer (30 μL/well) was added and the assay plates read on a luminometer (PE Biosystems Northstar reader with on-board injectors, or equivalent). Plates were read immediately after addition of luciferase assay buffer.
# The LXR/LNRE co-transfection assay can be used to establish the EC50/IC50 values for potency and percent activity or inhibition for efficacy. Efficacy defines the activity of a compound relative to a high control ((N-(3-((4-fluorophenyl)-(naphthalene-2-sulfonyl)amino)propyl)-2,2-dimethylpropionamide)) or a low control (DMSO/vehicle). The dose response curves are generated from an 8 point curve with concentrations differing by ½ LOG units. Each point represents the average of 4 wells of data from a 384 well plate. […]
Structure (SMILES),"IC50 or EC50 (potency, activation or inhibition)",EC50
"CC(C)(O)c1cn(-c2ccc(Br)cc2)c(-c2ccccc2C(F)(F)F)n1 [Example 374, 2-{1-(4-bromophenyl)-2-[2-(trifluoromethyl)phenyl]-1H-imidazol-4-yl}propan-2-ol]",1000 to 10000 nM,–
"CC(C)(O)c1cn(Cc2cccc(Cl)c2Cl)c(-c2ccc(-c3cccc(S(C)(=O)=O)c3)cc2)n1 [Example 444, 2-(1-(2,3-dichlorobenzyl)-2-(3′-(methylsulfonyl)biphenyl-4-yl)-1H-imidazol-4-yl)propan-2-ol]",< 1000 nM,–
"Cc1cc(-c2ccc(CO)c(S(C)(=O)=O)c2)ccc1-n1cc(C(C)(C)O)nc1-c1c(F)cccc1F [Example 178, 2-(2-(2,6-difluorophenyl)-1-(4′-(hydroxymethyl)-3-methyl-3′-(methylsulfonyl)biphenyl-4-yl)-1H-imidazol-4-yl)propan-2-ol]",< 1000 nM,–
"CC(C)(CO)c1cn(-c2ccc(-c3cccc(S(C)(=O)=O)c3)cc2)c(-c2c(Cl)cccc2Cl)n1 [Example 479, 2-(2-(2,6-dichlorophenyl)-1-(3′-(methylsulfonyl)biphenyl-4-yl)-1H-imidazol-4-yl)-2-methylpropan-1-ol]",< 1000 nM,–
"C/C(=N\O)c1cn(-c2ccc(-c3cccc(S(C)(=O)=O)c3)cc2C)c(-c2ccccc2C(C)C)n1 [Example 76, (E)-1-(2-(2-isopropylphenyl)-1-(3-methyl-3′-(methylsulfonyl)biphenyl-4-yl)-1H-imidazol-4-yl)ethanone oxime]",< 1000 nM,–
"CC(C)(O)c1cn(-c2ccc(-c3cccc(S(C)(=O)=O)c3)cc2)c(CCc2ccccc2Cl)n1 [Example 27, 2-(2-(2-chlorophenethyl)-1-(3′-(methylsulfonyl)biphenyl-4-yl)-1H-imidazol-4-yl)propan-2-ol]",–,< 1000 nM
"NS(=O)(=O)c1cccc(-c2ccc(-c3[nH]c(C(F)(F)F)nc3-c3ccccc3Cl)s2)c1 [Example 362, 3-{5-[4-(2-chlorophenyl)-2-(trifluoro-methyl)-1H-imidazol-5-yl]-2-thienyl}benzenesulfonamide]",< 1000 nM,–
"CC(C)(O)c1cn(-c2ccc(-c3cccc(C(=O)O)c3)cc2)c(-c2ccccc2Cl)n1 [Example 395, 4′-[2-(2-chlorophenyl)-4-(1-hydroxy-1-methylethyl)-1H-imidazol-1-yl]biphenyl-3-carboxylic acid]",1000 to 10000 nM,–
"CCS(=O)(=O)c1cccc(-c2cc(C)c(-n3cc(C(C)(C)O)nc3-c3ccccc3Cl)c(Cl)c2)c1 [Example 169, 2-(1-(3-chloro-3′-(ethylsulfonyl)-5-methylbiphenyl-4-yl)-2-(2-chlorophenyl)-1H-imidazol-4-yl)propan-2-ol]",< 1000 nM,–
"CCS(=O)(=O)c1cccc(-c2ccc(-n3cc(C(C)(C)O)nc3-c3cccc(F)c3Cl)c(C)c2)c1 [Example 186, 2-(2-(2-chloro-3-fluorophenyl)-1-(3′-(ethylsulfonyl)-3-methylbiphenyl-4-yl)-1H-imidazol-4-yl)propan-2-ol]",< 1000 nM,–
"COc1ccc(-c2ccc(-n3cc(C(C)(C)O)nc3Cc3cccc(Cl)c3Cl)c(C)c2)cc1S(C)(=O)=O [Example 456, 2-(2-(2,3-dichlorobenzyl)-1-(4′-methoxy-3-methyl-3′-(methyl-sulfonyl)biphenyl-4-yl)-1H-imidazol-4-yl)propan-2-ol]",< 1000 nM,–
"Cc1cc(-c2cccc(S(C)(=O)=O)c2)ccc1-n1cc(C(C)(C)O)nc1Cc1cccc(Cl)c1Cl [Example 23, 2-(2-(2,3-dichlorobenzyl)-1-(3-methyl-3′-(methylsulfonyl)biphenyl-4-yl)-1H-imidazol-4-yl)propan-2-ol]",–,< 1000 nM

# The next lines start with results.
"IC50 or EC50 (potency, activation or inhibition)",Structure (SMILES),EC50
< 1000 nM,"CCS(=O)(=O)c1cccc(-c2ccc(-n3cc(C(C)(C)O)nc3-c3c(F)cccc3Cl)c(C)c2)c1 [Example 188, 2-(2-(2-chloro-6-fluorophenyl)-1-(3′-(ethylsulfonyl)-3-methylbiphenyl-4-yl)-1H-imidazol-4-yl)propan-2-ol]",–
< 1000 nM,"CCS(=O)(=O)c1cccc(-c2ccc(-n3cc(C(C)(C)O)nc3Cc3cc(Cl)ccc3F)cc2)c1 [Example 482, 2-(2-(5-chloro-2-fluorobenzyl)-1-(3′-(ethylsulfonyl)biphenyl-4-yl)-1H-imidazol-4-yl)propan-2-ol]",–
< 1000 nM,"CCS(=O)(=O)c1cccc(-c2ccc(-n3cc(C(C)(C)O)nc3-c3c(C)cccc3Cl)c(C)c2)c1 [Example 192, 2-(2-(2-chloro-6-methylphenyl)-1-(3′-(ethylsulfonyl)-3-methylbiphenyl-4-yl)-1H-imidazol-4-yl)propan-2-ol]",–
< 1000 nM,"CC(C)(O)c1cn(-c2ccc(-c3cccc(S(C)(=O)=O)c3)cc2F)c(Cc2cccc(Cl)c2Cl)n1 [Example 449, 2-(2-(2,3-dichlorobenzyl)-1-(3-fluoro-3′-(methylsulfonyl)biphenyl-4-yl)-1H-imidazol-4-yl)propan-2-ol]",–
1000 to 10000 nM,"CCS(=O)(=O)c1cccc(-c2ccc(-n3cc(C(C)(C)O)nc3-c3cccc4cnccc34)c(C)c2)c1 [Example 36, 2-(1-(3′-(ethylsulfonyl)-3-methylbiphenyl-4-yl)-2-(isoquinolin-5-yl)-1H-imidazol-4-yl)propan-2-ol]",–
< 1000 nM,"CC(C)(O)c1cn(-c2ccc(-c3cccc(S(C)(=O)=O)c3)c(F)c2)c(-c2ccccc2C(F)(F)F)n1 [Example 111, 2-(1-(2-fluoro-3′-(methyl-sulfonyl)biphenyl-4-yl)-2-(2-(trifluoromethyl)phenyl)-1H-imidazol-4-yl)propan-2-ol]",–
< 1000 nM,CCc1ccccc1-c1nc(C(C)(C)O)cn1-c1ccc(-c2cccc(S(C)(=O)=O)c2)cc1 [Example 93],–
< 1000 nM,"Cc1cc(-c2ccc(CO)c(S(C)(=O)=O)c2)ccc1-n1cc(C(C)(C)O)nc1-c1c(F)cccc1Cl [Example 172, 2-(2-(2-chloro-6-fluorophenyl)-1-(4′-(hydroxymethyl)-3-methyl-3′-(methylsulfonyl)biphenyl-4-yl)-1H-imidazol-4-yl)propan-2-ol]",–
< 1000 nM,"CS(=O)(=O)c1cccc(-c2ccc(-n3cc(C(=O)NCCO)nc3-c3c(Cl)cccc3Cl)c(Cl)c2)c1 [Example 470, 1-(3-chloro-3′-(methylsulfonyl)biphenyl-4-yl)-2-(2,6-dichlorophenyl)-N-(2-hydroxyethyl)-1H-imidazole-4-carboxamide]",–
< 1000 nM,"Cc1cccc(Cl)c1-c1nc(C(C)(C)O)cn1-c1ccc(-c2cccc(S(C)(=O)=O)c2)cc1F [Example 128, 2-(2-(2-chloro-6-methylphenyl)-1-(3-fluoro-3′-(methylsulfonyl)biphenyl-4-yl)-1H-imidazol-4-yl)propan-2-ol]",–
1000 to 10000 nM,"CC(=O)c1cn(-c2ccc(-c3cccc(S(C)(=O)=O)c3)cc2)c(-c2ccccc2F)n1 [Example 381, 1-{2-(2-fluorophenyl)-1-[3′-(methylsulfonyl)biphenyl-4-yl]-1H-imidazol-4-yl}ethanone]",–
< 1000 nM,"CS(=O)(=O)c1cccc(-c2ccc(-c3[nH]c(C(F)(F)F)nc3-c3ccccc3Cl)s2)c1 [Example 357, 4-(2-chlorophenyl)-5-{5-[3-(methylsulfonyl)phenyl]-2-thienyl}-2-(trifluoromethyl)-1H-imidazole]",–
